Test system: K24384-001-R-PDC complex spheroids, viability
Assay: Anticancer human tumor K24384-001-R-PDC patient-derived pancreatic adenocarcinoma cell line growth inhibition [GQUAD]
Conditions: for IC50: curve of first compound; for viability, T/C: stronger effect = lower value
Source text: DNA G-quadruplex Stabilizer Agents in Combinations in Complex Spheroids
A high-throughput screen of multi-cell type tumor spheroids was designed to identify active combinations of DNA G-quadruplex stabilizer agents and targeted small molecules. Complex spheroids include a stromal component modeled by human endothelial cells (HUVEC) and fibroblasts modeled by human mesenchymal stem cells (MSCs). The concentration ranges selected for each drug and investigational agent were based upon clinically achievable concentrations if the clinical Cmax of the agent was known.
Compounds. The drugs and investigational agents: pidnarulex (CX-5461; NSC782164), APTO-253 (NSC789042), BRACO-19 (NSC847499), peposertib (NSC802822), ceralasertib (NSC780249), elimusertib (NSC800525), camonsertib (NSC841442), AZD-1390 (NSC803789), olaparib (NSC753686), talazoparib (NSC767125), ART-558 (NSC835418), sotorasib (NSC818433), MRTX-1133 (NSC836407), SN-38 (NSC673596), topotecan (NSC609699), etoposide (NSC141540), doxorubicin (NSC123127), gemcitabine (NSC613327), 5-fluorouracil (NSC19893), paclitaxel (NSC125973), vemurafenib (NSC761431), panobinostat (NSC761190), R-306465 (JNJ-16241199; NSC773264), adavosertib (NSC754352), TP-3654 (NSC805149), carboplatin (NSC241240), KSQ-4279 (NSC840948), and staurosporine (NSC755774) were obtained from the National Cancer Institute (NCI) Developmental Therapeutics Program Chemical Repository (34). The FDA-approved anticancer drug set is available from the NCI Developmental Therapeutics Program. […] The stock solutions were prepared in dimethyl sulfoxide (DMSO, Sigma-Aldrich, St. Louis, MO, cat. D2650) at 800-fold the tested concentration and stored at -70 degrees C prior to their use. All drugs and investigational agents were tested over a range starting from a high concentration at or near the clinical Cmax and decreasing in half-log increments. If the clinical Cmax for an agent had not been determined, the highest concentration tested was 10 microM.
2.3 Cell Culture. All cells were maintained in an incubator at 37 degrees C and 5% CO2 with 95% humidity. The PDC lines were cultured according to standard operating procedures established by the NCI PDMR. All PDCs were thawed and cultured in Matrigel-coated flasks prepared with a working solution of 1X Ham's F-12 nutrient mix, without supplementation (Invitrogen, cat. 11765054), 100 U/mL penicillin-streptomycin (Invitrogen, cat. 15140122), and 2.5% Matrigel (Corning Inc., cat. 354248) for the first three passages. The 857933-349-R-J2-PDC line was cultured in 6C/Colon 1B media, which includes advanced DMEM/F-12 (Thermo Fisher Scientific, cat. 12634028), 10 mM HEPES (Thermo Fisher Scientific, cat. 15630080), 1X GlutaMAX supplement (Thermo Fisher Scientific, cat. 35050061), 0.1 mg/mL primocin (InvivoGen, cat. ant-pm-2), 10% defined fetal bovine serum, heat inactivated (HyClone Laboratories Inc., cat. SH30070.03HI), 50% L-WRN conditioned media (ATCC, cat. CRL-3276), 1.25 mM N-Acetyl-L-cysteine (Sigma-Aldrich, cat. A9165), 10 mM nicotinamide (Sigma-Aldrich, cat. N0636), 1X B-27 supplement (Thermo Fisher Scientific, cat. 17504044), 1X N-2 supplement (Thermo Fisher Scientific, cat. 17502048), 10 microM Y-27632 dihydrochloride (Tocris Bioscience, cat. 1254), and 50 ng/mL human EGF recombinant protein (Thermo Fisher Scientific, cat. PHG0311). The 485176-168-R4-J1-PDC line was cultured in Panc media, which includes all 6C/Colon 1B media components plus 100 ng/mL human FGF-10 (Thermo Fisher Scientific, cat. 100-26), 500 nM SB-431542 (Selleckchem, cat. S1067), and gastrin (Tocris, cat. 3006).
[…]
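Further: spheroids exposed to compounds for seven days.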

C=CC(=O)N1CCN(c2nc(=O)n(-c3c(C)ccnc3C(C)C)c3nc(-c4c(O)cccc4F)c(F)cc23)C(C)C1 (configuration not stated) + Cc1[nH]c2ccc(F)cc2c1-c1nc2c3cccnc3c3ncccc3c2[nH]1
IC50 (second compound 0.0316 µM): > 10 µM
IC50 (second compound 0.1 µM): > 10 µM
IC50 (second compound 0.316 µM): > 10 µM
IC50 (second compound 1 µM): > 10 µM
IC50 (second compound 3.16 µM): > 10 µM
IC50 (second compound 10 µM): > 10 µM
viability, T/C (second compound 0.0316 µM, first compound 0.0316 µM): 111%
viability, T/C (second compound 0.0316 µM, first compound 0.1 µM): 78.9%
viability, T/C (second compound 0.0316 µM, first compound 0.316 µM): 104%
viability, T/C (second compound 0.0316 µM, first compound 1 µM): 101%
viability, T/C (second compound 0.0316 µM, first compound 3.16 µM): 111%
viability, T/C (second compound 0.0316 µM, first compound 10 µM): 88.3%
viability, T/C (second compound 0.1 µM, first compound 0.0316 µM): 96%
viability, T/C (second compound 0.1 µM, first compound 0.1 µM): 96.8%
viability, T/C (second compound 0.1 µM, first compound 0.316 µM): 95%
viability, T/C (second compound 0.1 µM, first compound 1 µM): 117%
viability, T/C (second compound 0.1 µM, first compound 3.16 µM): 106%
viability, T/C (second compound 0.1 µM, first compound 10 µM): 77.4%
viability, T/C (second compound 0.316 µM, first compound 0.0316 µM): 110%
viability, T/C (second compound 0.316 µM, first compound 0.1 µM): 92.8%
viability, T/C (second compound 0.316 µM, first compound 0.316 µM): 95.2%
viability, T/C (second compound 0.316 µM, first compound 1 µM): 119%
viability, T/C (second compound 0.316 µM, first compound 3.16 µM): 101%
viability, T/C (second compound 0.316 µM, first compound 10 µM): 83.3%
viability, T/C (second compound 1 µM, first compound 0.0316 µM): 92.8%
viability, T/C (second compound 1 µM, first compound 0.1 µM): 105%
viability, T/C (second compound 1 µM, first compound 0.316 µM): 99.5%
viability, T/C (second compound 1 µM, first compound 1 µM): 103%
viability, T/C (second compound 1 µM, first compound 3.16 µM): 96.2%
viability, T/C (second compound 1 µM, first compound 10 µM): 70.1%
viability, T/C (second compound 3.16 µM, first compound 0.0316 µM): 71.7%
viability, T/C (second compound 3.16 µM, first compound 0.1 µM): 74.8%
viability, T/C (second compound 3.16 µM, first compound 0.316 µM): 71.2%
viability, T/C (second compound 3.16 µM, first compound 1 µM): 84.4%
viability, T/C (second compound 3.16 µM, first compound 3.16 µM): 79.2%
viability, T/C (second compound 3.16 µM, first compound 10 µM): 67.1%
viability, T/C (second compound 10 µM, first compound 0.0316 µM): 66%
viability, T/C (second compound 10 µM, first compound 0.1 µM): 63.7%
viability, T/C (second compound 10 µM, first compound 0.316 µM): 65.7%
viability, T/C (second compound 10 µM, first compound 1 µM): 72.3%
viability, T/C (second compound 10 µM, first compound 3.16 µM): 80.5%
viability, T/C (second compound 10 µM, first compound 10 µM): 60.8%

Reference: PubChem BioAssay AID2060483 (Molecular Pharmacology Branch, DTP, NCI, 2025)
